We go through 2 compounds from BindingDB's records for doi:10.1016/s0960-894x(01)00092-0 (Novartis Pharma, 2001).

Structures are written as SMILES.

The nature of assay [1]: Inhibitory concentration against Selectin E in a dynamic flow assay.
Test in assay [2]: as above
The source holds these as a separate data set.

As a reminder, the IC50 is the concentration that gives 50% inhibition. The low end stands for greater potency, the high end for weaker potency. The compound `COC(=O)CCCCCCCCO[C@@H]1O[C@@H](CO)[C@@H](O[C@@H]2O[C@@H](CO)[C@H](O)[C@H](O[C@@H](CC3CCCCC3)C(=O)O)[C@@H]2O)[C@H](O[C@@H]2O[C@@H](C)[C@@H](O)[C@H](O)[C@@H]2O)[C@@H]1NC(=O)c1ccc(OC)c(OC)c1` [Sialyl Lewis X Analogue] returned an IC50 in assay [1] of 10 µM.

Take `C[C@@H]1O[C@@H](O[C@@H]2[C@H](CO)OCC[C@H]2O[C@@H]2O[C@@H](CO)[C@H](O)[C@H](O[C@@H](CC3CCCCC3)C(=O)O)[C@@H]2O)[C@@H](O)[C@@H](O)[C@@H]1O` [Sodium; (R)-3-cyclohexyl-2-{3,5-dihydroxy-2-hydroxymethyl-6-[2-hydroxymethyl-3-(3,4,5-trihydroxy-6-methyl-tetrahydro-pyran-2-yloxy)-tetrahydro-pyran-4-yloxy]-tetrahydro-pyran-4-yloxy}-propionate]: the 50% inhibitory concentration (IC50) in assay [2] stood at 30 µM.
